Common to all, as to assay type: biochemical
For assay [1], the target named is T1, Human Tyk2 kinase domain (Homo sapiens, UniProt P29597).
T1 construct: comprising amino acids 886 to 1187 with 10 additional histidine residues; 10xHis (histidine tag) (C, cleaved yes); made in house
T1 sequence (P29597 886-1187): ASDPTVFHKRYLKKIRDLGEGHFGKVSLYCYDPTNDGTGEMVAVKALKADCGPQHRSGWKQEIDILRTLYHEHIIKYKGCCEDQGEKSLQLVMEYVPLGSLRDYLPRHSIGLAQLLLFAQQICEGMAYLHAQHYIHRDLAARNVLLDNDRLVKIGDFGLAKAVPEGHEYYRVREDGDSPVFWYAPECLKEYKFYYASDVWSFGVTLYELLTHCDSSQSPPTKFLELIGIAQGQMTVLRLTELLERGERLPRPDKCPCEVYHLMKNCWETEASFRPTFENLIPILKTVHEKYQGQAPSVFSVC
The assay can be described thus: Tyk2 Inhibition Assay (Omnia kinase fluorescence peptide substrate assay). The settings on record: averaged IC50 ranges; assay of Example A; 10 μM (Km app) or 1 mM ATP, 2 nM Tyk2. The gist of the method:
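2 nM His-tag-cleaved kinase domain (aa 886–1187) with 8 μM Omnia Y12 peptide, 10 μM (Km app) or 1 mM ATP, pH 7.4 HEPES/10 mM MgCl2, 2% DMSO. Fluorescence (ex 360/em 485 nm) every 50 s for 45 min; IC50 from 4-parameter fit of POC, top dose 10 μM.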

For assay [2], the target named is T2, JAK1 (Homo sapiens, UniProt P23458).
T2 construct: purchased Invitrogen Corporation, Carlsbad, Calif; PV4775
The assay can be described thus: JAK1 Inhibition Assay (Omnia kinase fluorescence peptide substrate assay). To be noted: averaged IC50 ranges; assay of Example B; 40 μM (Km app) or 1 mM ATP, 15 nM JAK1.

The target of assay [3] is T3, JAK2 (Homo sapiens, UniProt O60674).
T3 construct: purchased Invitrogen Corporation, Carlsbad, Calif; PV4288
Description: JAK2 Inhibition Assay (Omnia kinase fluorescence peptide substrate assay). To be noted: averaged IC50 ranges; assay of Example C; 25 μM (Km app) or 1 mM ATP, 5 nM JAK2. An outline of the steps: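 5 nM JAK2 phosphorylated 10 μM Omnia Y7 peptide with ATP at 25 μM (Km app) or 1 mM, in 25 mM HEPES pH 7.4, 10 mM MgCl2, 0.01% Triton X-100, 1 mM DTT, 2% DMSO. Fluorescence (360/485 nm) was read every 50 s for 45 min. 10-point 3-fold series from 10 μM; POC versus uninhibited and background controls, 4-parameter logistic IC50.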

Assay [4] has as its target T4, JAK3 (Homo sapiens, UniProt P52333).
T4 construct: purchased Invitrogen Corporation, Carlsbad, Calif; PV4080
T4 sequence (P52333 1-1124): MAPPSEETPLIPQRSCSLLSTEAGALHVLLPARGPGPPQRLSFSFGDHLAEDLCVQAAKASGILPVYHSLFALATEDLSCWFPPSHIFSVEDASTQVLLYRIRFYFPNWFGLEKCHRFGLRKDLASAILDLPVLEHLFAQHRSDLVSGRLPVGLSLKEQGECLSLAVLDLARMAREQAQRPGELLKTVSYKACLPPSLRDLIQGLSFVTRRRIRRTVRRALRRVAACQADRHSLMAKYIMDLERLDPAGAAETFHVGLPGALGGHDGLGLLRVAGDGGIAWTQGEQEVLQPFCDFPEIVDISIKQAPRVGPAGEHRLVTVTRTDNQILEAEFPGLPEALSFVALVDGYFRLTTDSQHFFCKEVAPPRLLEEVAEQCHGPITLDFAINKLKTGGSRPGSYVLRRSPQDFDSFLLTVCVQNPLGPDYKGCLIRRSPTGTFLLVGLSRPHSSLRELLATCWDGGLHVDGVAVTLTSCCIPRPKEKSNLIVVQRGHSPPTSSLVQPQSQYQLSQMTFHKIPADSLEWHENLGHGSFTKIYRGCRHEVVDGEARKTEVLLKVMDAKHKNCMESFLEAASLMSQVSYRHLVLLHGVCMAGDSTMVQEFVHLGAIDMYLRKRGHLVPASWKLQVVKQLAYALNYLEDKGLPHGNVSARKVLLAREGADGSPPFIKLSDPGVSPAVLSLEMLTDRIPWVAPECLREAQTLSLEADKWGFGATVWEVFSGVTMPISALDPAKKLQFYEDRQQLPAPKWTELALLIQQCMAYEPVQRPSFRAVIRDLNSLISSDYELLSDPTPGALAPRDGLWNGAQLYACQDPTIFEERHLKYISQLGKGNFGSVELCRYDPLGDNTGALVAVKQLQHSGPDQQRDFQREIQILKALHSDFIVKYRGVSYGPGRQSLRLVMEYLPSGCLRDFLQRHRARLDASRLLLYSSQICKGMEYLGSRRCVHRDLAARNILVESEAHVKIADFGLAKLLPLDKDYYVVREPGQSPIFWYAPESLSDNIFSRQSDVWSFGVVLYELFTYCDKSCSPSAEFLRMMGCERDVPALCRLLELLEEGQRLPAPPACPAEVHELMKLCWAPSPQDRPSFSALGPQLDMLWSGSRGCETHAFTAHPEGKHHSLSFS
The assay can be described thus: JAK3 Inhibition Assay (Omnia kinase fluorescence peptide substrate assay). To be noted: averaged IC50 ranges; assay of Example D; 10 μM (Km app) or 1 mM ATP, 2.5 nM JAK3. An outline of the steps: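 Kinase at 2.5 nM with 10 µM Omnia Y7 peptide and 10 µM (Km app) or 1 mM ATP in 25 mM HEPES pH 7.4, 10 mM MgCl2, 1 mM DTT, 0.01% Triton X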

The text below walks through data of patent US8962596B2 (Array BioPharma Inc., priority 2010, dated 2015).

For orientation: IC50 means the concentration that gives 50% inhibition. Lower therefore signals greater potency.

SMILES strings stand for the structures. Some results are limits rather than exact numbers.

T2 sequence (P23458 whole entry): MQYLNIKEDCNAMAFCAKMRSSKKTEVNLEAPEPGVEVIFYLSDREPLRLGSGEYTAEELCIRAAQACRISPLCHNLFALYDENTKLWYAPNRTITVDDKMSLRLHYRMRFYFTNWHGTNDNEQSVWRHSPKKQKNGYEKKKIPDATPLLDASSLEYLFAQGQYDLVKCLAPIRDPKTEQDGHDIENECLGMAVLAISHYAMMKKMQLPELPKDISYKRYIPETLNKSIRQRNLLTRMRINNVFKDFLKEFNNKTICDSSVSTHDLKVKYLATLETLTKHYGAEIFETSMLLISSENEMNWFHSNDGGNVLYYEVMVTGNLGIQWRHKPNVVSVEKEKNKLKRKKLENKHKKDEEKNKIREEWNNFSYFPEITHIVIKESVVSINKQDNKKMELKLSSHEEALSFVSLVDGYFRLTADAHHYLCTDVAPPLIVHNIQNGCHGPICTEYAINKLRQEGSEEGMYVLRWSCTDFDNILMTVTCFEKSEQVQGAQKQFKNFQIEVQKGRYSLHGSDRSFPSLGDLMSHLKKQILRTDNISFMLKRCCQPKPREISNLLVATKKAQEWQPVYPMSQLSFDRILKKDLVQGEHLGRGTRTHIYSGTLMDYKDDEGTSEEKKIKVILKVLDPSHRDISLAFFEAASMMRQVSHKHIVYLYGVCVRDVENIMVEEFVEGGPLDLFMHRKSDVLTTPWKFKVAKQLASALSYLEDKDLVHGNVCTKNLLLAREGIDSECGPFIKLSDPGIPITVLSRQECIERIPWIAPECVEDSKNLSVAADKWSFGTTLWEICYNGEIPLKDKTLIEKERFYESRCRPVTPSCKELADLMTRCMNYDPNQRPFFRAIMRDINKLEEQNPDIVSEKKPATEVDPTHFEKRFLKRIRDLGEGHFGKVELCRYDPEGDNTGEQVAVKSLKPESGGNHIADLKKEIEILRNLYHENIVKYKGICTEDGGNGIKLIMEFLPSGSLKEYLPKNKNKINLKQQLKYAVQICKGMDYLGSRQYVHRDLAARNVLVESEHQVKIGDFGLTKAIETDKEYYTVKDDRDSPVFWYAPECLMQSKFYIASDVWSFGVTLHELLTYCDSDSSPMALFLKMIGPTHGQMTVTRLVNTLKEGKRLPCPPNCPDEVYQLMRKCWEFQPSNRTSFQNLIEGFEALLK
T3 sequence (O60674 whole entry): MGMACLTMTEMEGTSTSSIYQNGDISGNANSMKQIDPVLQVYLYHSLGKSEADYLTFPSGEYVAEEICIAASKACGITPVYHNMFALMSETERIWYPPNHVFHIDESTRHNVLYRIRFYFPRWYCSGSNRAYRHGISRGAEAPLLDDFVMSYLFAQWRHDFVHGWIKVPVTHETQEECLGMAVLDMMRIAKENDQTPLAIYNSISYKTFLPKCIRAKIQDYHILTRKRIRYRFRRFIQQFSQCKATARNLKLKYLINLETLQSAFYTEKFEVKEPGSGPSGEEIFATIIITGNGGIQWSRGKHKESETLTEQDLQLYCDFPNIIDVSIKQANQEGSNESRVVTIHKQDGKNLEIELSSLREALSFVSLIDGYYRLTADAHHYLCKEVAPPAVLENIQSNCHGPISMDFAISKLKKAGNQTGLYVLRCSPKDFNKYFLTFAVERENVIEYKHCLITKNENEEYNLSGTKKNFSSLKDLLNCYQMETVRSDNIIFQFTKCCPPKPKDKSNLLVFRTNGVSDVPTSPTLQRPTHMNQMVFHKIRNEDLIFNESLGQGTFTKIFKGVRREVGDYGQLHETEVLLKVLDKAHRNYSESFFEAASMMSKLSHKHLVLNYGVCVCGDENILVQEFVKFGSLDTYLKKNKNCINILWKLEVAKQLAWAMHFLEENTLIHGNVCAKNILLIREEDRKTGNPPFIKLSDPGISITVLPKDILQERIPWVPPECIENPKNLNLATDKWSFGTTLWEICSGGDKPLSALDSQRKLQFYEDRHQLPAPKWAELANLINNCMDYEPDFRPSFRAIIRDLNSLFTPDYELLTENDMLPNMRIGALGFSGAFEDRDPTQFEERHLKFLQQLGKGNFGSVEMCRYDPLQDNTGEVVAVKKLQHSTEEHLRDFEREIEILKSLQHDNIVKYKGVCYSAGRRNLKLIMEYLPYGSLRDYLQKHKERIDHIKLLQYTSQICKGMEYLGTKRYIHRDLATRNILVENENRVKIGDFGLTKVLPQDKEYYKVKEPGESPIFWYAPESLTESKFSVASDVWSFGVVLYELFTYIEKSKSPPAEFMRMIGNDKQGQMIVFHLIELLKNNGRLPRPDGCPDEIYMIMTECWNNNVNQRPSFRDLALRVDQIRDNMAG

With `CN1CC(CC#N)(n2cc(-c3nc(-c4cnn(C)c4)cc4nccn34)cn2)C1` [Example 83, 2-(1-methyl-3-(4-(7-(1-methyl-1H-pyrazol-4-yl)imidazo[1,2-c]pyrimidin-5-yl)-1H-pyrazol-1-yl)azetidin-3-yl)acetonitrile], the IC50 is 10 to 100 nM in assay [1], above 1000 nM in assay [2], 100 to 1000 nM in assay [3] and above 1000 nM in assay [4].

Consider `Cn1cc(-c2cc3nccn3c(-c3cnn(C4(CC#N)CN(CC5CC5)C4)c3)n2)cn1` [Example 84, 2-(1-(cyclopropylmethyl)-3-(4-(7-(1-methyl-1H-pyrazol-4-yl)imidazo[1,2-c]pyrimidin-5-yl)-1H-pyrazol-1-yl)azetidin-3-yl)acetonitrile], for which the IC50 is below 10 nM in assay [1], 100 to 1000 nM in assay [2], 10 to 100 nM in assay [3] and above 1000 nM in assay [4].

For `CC(C)CN1CC(CC#N)(n2cc(-c3nc(-c4cnn(C)c4)cc4nccn34)cn2)C1` [Example 85, 2-(1-isobutyl-3-(4-(7-(1-methyl-1H-pyrazol-4-yl)imidazo[1,2-c]pyrimidin-5-yl)-1H-pyrazol-1-yl)azetidin-3-yl)acetonitrile], the IC50 in assay [1] is 10 to 100 nM; in assay [2], 100 to 1000 nM; in assay [3] it was 100 to 1000 nM; in assay [4] it was above 1000 nM.

Turning to `Cn1cc(-c2cc3nccn3c(-c3cnn(C4(CC#N)CN(CCC(F)(F)F)C4)c3)n2)cn1` [Example 86, 2-(3-(4-(7-(1-methyl-1H-pyrazol-4-yl)imidazo[1,2-c]pyrimidin-5-yl)-1H-pyrazol-1-yl)-1-(3,3,3-trifluoropropyl)azetidin-3-yl)acetonitrile], the IC50 was 10 to 100 nM in assay [1], 100 to 1000 nM in assay [2], 100 to 1000 nM in assay [3] and above 1000 nM in assay [4].

For `Cn1cc(-c2cc3nccn3c(-c3cnn(C4(CC#N)CN(CC5CCC5)C4)c3)n2)cn1` [Example 87, 2-(1-(cyclobutylmethyl)-3-(4-(7-(1-methyl-1H-pyrazol-4-yl)imidazo[1,2-c]pyrimidin-5-yl)-1H-pyrazol-1-yl)azetidin-3-yl)acetonitrile], the 50% inhibitory concentration (IC50) in assay [1] was 10 to 100 nM; in assay [2], above 1000 nM; in assay [3], 100 to 1000 nM; in assay [4], above 1000 nM.

Consider `Cn1cc(-c2cc3nccn3c(-c3cnn(C4(CC#N)CN(Cc5ccccc5)C4)c3)n2)cn1` [Example 88, 2-(1-benzyl-3-(4-(7-(1-methyl-1H-pyrazol-4-yl)imidazo[1,2-c]pyrimidin-5-yl)-1H-pyrazol-1-yl)azetidin-3-yl)acetonitrile], for which the 50% inhibitory concentration (IC50) was 100 to 1000 nM in assay [1], above 1000 nM in assay [2], 100 to 1000 nM in assay [3] and above 1000 nM in assay [4].

In the case of `Cn1cc(-c2cc3nccn3c(-c3cnn(C4(CC#N)CN(CC5CCOCC5)C4)c3)n2)cn1` [Example 89, 2-(3-(4-(7-(1-methyl-1H-pyrazol-4-yl)imidazo[1,2-c]pyrimidin-5-yl)-1H-pyrazol-1-yl)-1-((tetrahydro-2H-pyran-4-yl)methyl)azetidin-3-yl)acetonitrile], the IC50 in assay [1] was 100 to 1000 nM; in assay [2], above 1000 nM; in assay [3], above 1000 nM; in assay [4] it was above 1000 nM.

For `Cn1cc(-c2cc3ncc(Cl)n3c(-c3cnn(C4(CC#N)CN(CC(F)(F)F)C4)c3)n2)cn1` [Example 90, 2-(3-(4-(3-Chloro-7-(1-methyl-1H-pyrazol-4-yl)imidazo[1,2-c]pyrimidin-5-yl)-1H-pyrazol-1-yl)-1-(2,2,2-trifluoroethyl)azetidin-3-yl)acetonitrile], the IC50 is below 10 nM in assay [1], 100 to 1000 nM in assay [2], 10 to 100 nM in assay [3] and 100 to 1000 nM in assay [4].

For the compound `CC(C)S(=O)(=O)N1CC(CC#N)(n2cc(-c3nc(-c4cnn(C)c4)cc4nccn34)cn2)C1` [Example 91, 2-(1-(Isopropylsulfonyl)-3-(4-(7-(1-methyl-1H-pyrazol-4-yl)imidazo[1,2-c]pyrimidin-5-yl)-1H-pyrazol-1-yl)azetidin-3-yl)acetonitrile], the concentration for half-maximal inhibition (IC50) is 10 to 100 nM in assay [1], 100 to 1000 nM in assay [2], 100 to 1000 nM in assay [3] and above 1000 nM in assay [4].

On to `Cn1cc(-c2cc3nccn3c(-c3cnn(C4(CC#N)CN(S(C)(=O)=O)C4)c3)n2)cn1` [Example 92, 2-(3-(4-(7-(1-methyl-1H-pyrazol-4-yl)imidazo[1,2-c]pyrimidin-5-yl)-1H-pyrazol-1-yl)-1-(methylsulfonyl)azetidin-3-yl)acetonitrile], for which the half-maximal inhibitory concentration (IC50) in assay [1] is below 10 nM; in assay [2], 100 to 1000 nM; in assay [3], 10 to 100 nM; in assay [4], above 1000 nM.

Regarding `CCCS(=O)(=O)N1CC(CC#N)(n2cc(-c3nc(-c4cnn(C)c4)cc4nccn34)cn2)C1` [Example 93, 2-(3-(4-(7-(1-methyl-1H-pyrazol-4-yl)imidazo[1,2-c]pyrimidin-5-yl)-1H-pyrazol-1-yl)-1-(propylsulfonyl)azetidin-3-yl)acetonitrile], the IC50 in assay [1] was below 10 nM; in assay [2], 100 to 1000 nM; in assay [3] it was 100 to 1000 nM; in assay [4], above 1000 nM.

Take `Cn1cc(-c2cc3nccn3c(-c3cnn(C4(CC#N)CN(S(=O)(=O)C5CCCCC5)C4)c3)n2)cn1` [Example 94, 2-(1-(cyclohexylsulfonyl)-3-(4-(7-(1-methyl-1H-pyrazol-4-yl)imidazo[1,2-c]pyrimidin-5-yl)-1H-pyrazol-1-yl)azetidin-3-yl)acctonitrile]: the IC50 was 10 to 100 nM in assay [1], above 1000 nM in assay [2], 100 to 1000 nM in assay [3] and above 1000 nM in assay [4].

Take `Cn1cc(-c2cc3nccn3c(-c3cnn(C4(CC#N)CN(S(=O)(=O)C5CC5)C4)c3)n2)cn1` [Example 95, 2-(1-(cyclopropylsulfonyl)-3-(4-(7-(1-methyl-1H-pyrazol-4-yl)imidazo[1,2-c]pyrimidin-5-yl)-1H-pyrazol-1-yl)azetidin-3-yl)acetonitrile]: the IC50 is below 10 nM in assay [1], 10 to 100 nM in assay [2], 10 to 100 nM in assay [3] and above 1000 nM in assay [4].

Turning to `Cn1cc(-c2cc3nccn3c(-c3cnn(C4(CC#N)CN(S(=O)(=O)C(F)(F)F)C4)c3)n2)cn1` [Example 96, 2-(3-(4-(7-(1-Methyl-1H-pyrazol-4-yl)imidazo[1,2-c]pyrimidin-5-yl)-1H-pyrazol-1-yl)-1-(trifluoromethylsulfonyl)azetidin-3-yl)acetonitrile], the IC50 in assay [1] is below 10 nM; in assay [2] it was below 10 nM; in assay [3] it was below 10 nM; in assay [4] it was 100 to 1000 nM.
